In one test the test system is OVACR8. Briefly: Screen of 14 JAK/STAT pathway inhibitors, CellTiterGlo viability, 2D and 3D cultures. Conditions: OVACR8, 1 μM, 2D and 3D culture. The format is cell-based. How it is done:
FIG. 6A-FIG. 6G are a series of graphs and images depicting the impact of JAK/STAT-inhibition on spheroid formation, invasion and killing ex vivo and in vitro. FIG. 6A a histogram (FIG. 11B), showing drug screening with 14 compounds (at 1 μM) inhibiting the JAK/STAT pathway in OVACR4. Relative viability compared to DMSO control measured by CTG. […] The same library was screened in 2D-cultures of OVACR4 (FIG. 11A), and 2D-cultures of OVACR8 (FIG. 11C) and 3D-cultures of OVACR8 (FIG. 11D). FIG. 6B is a series of plots showing drug sensitivity testing using the GILA assay in platinum-resistant ex vivo spheroid cultures of patients DF3291 and DF3266, The X-axis indicates the log μM concentration of drugs indicated in the legend, Y-axis indicates the percentage of luminescence signal as indicator for viability relatively to DMSO treated cells. In both patients, half maximal effective concentration (EC50) were ˜100 nM and ˜10 nM, respectively, while other drugs routinely used for the treatment of (platinum-resistant) ovarian cancer had EC50>10 μM. […] 20 spheroids clusters were analyzed for each iteration. […]
FIG. 11A-FIG. 11E are a series of histograms of OVACR4 and OVACR8 ovarian cancer cell lines grown in 2D and 3D cultures and treated with 14 JAK/STAT pathway inhibitors at 1 μM. Vability of the cells was determined using the CellTiterGlo assay. […]
A general note: Cellular ATP, detected with luciferase, serves as a proxy for viable cell number.

For a further test, the system named is PDX model DF20 SC tumors. The experiment in a line: PDX model DF20, SC injected cancer cells, IP JSI-124 vs vehicle, BLI. Format: in vivo, mice. The protocol: FIG. 7A-FIG. 7E are a series of graphs and images that depict the impact of JAK/STAT-inhibition on spheroid formation in vivo and anti-tumor activity. […] Each of these were performed following intraperitoneal (IP) or subcutaneous (SC) injection of cancer cells followed by IP therapy with JSI-124 vs. vehicle. Each group includes 5 mice. The inverted triangle indicates the time=0 of cancer cell injection. […] Mice were injected IP with tumor cells and one week later started treatment for a total 14 days. Each group includes 5 mice. Y-axis indicates log of bioluminescence imaging (BLI) signal (log total flux in p/s). Values are given as mean of log BLI signal, error bars indicate standard deviation from the mean. ***p<0.0001 (two-sided t test comparing mean±STDEV at Day 15 of treatment). […] Each group includes 5 mice. Y-axis indicates log BLI signal (log total flux in p/s). Values are given as mean of log BLI signal, error bars indicate standard deviation from the mean. ***p<0.0001 (two-sided t test comparing mean±STDEV at Day 15 of treatment). […] Mice were injected SC with tumor cells and one week later started treatment for a total 14 days. Each group includes 5 mice. Y-axis indicates log BLI signal (log total flux in p/s). Values are given as mean of log BLI signal, error bars indicate standard deviation from the mean. ***p<0.0001 (two-sided t test comparing mean±STDEV at Day 15 of treatment). […] Each group includes 5 mice. Y-axis indicates log BLI signal (log total flux in p/s). Values are given as mean of log BLI signal, error bars indicate standard deviation from the mean. ***p<0.0001 (two-sided t test comparing mean±STDEV at Day 15 of treatment).
A frequently used treatment modality for advanced ovarian cancer is the intraperitoneal administration of chemotherapy, such as cisplatin, which has local effects, but is also systemically reabsorbed to treat potential metastatic disease. […] Tumor growth was compared following IP JSI-124 treatment v. vehicle.

Test [1] deals with STAT3 activity in Heya8 cells. Briefly: STAT3-dependent luciferase assay after oncostatin M (OSM) stimulation. The format is cell-based. The following applies: Heya8 cells pre-treated 1 hour vs DMSO, then OSM stimulation.
Test [2] concerns cells from abdominal ascites of ovarian patient NACT14. Briefly: Sensitivity of patient-derived ovarian cells in a microfluidic device. The format is cell-based. The following applies: 10 μM, ~800 cells in 1 microliter, imaging 48 hours after drug. The protocol: Heterogeneous cell population isolated from abdominal ascites of ovarian patient NACT14. A limited number of cells (˜800 cells) in a volume of 1 microliter were tested for sensitivity of JSI124. On day 0, the cells were seeded in the microfluidic device. On day 1, drug was administered, together with a blue dye (FIG. 29-FIG. 31).
Hoechst confocal imaging (stained nuclei) was used to observe cells forty eight (48) hours after the drug was added (FIG. 32-FIG. 35).

[3] abbreviates: SC tumors established 3 weeks, then IP treatment 14 days.
The mark [4] stands for this setting: SC tumors established 7 days, then 14 days IP therapy.

With `CC(C)(O)/C=C/C(=O)[C@](C)(O)[C@H]1[C@@H](O)C[C@@]2(C)[C@@H]3CC=C4[C@H](C=C(O)C(=O)C4(C)C)[C@]3(C)C(=O)C[C@]12C` [JSI-124, cucurbitacin I], the “Viability (CellTiterGlo), cell killing” value in the test on OVACR8 is on record as “most effective compound leading to cell killing”. In the test on PDX model DF20 SC tumors (setting [3]), the “Established SC tumors” value is “significant and near complete elimination of SC tumors”; the “mean day 15 log BLI signal±standard deviation” value is 8.52×10^8±3.1×10^8 p/s. In the test with PDX model DF20 SC tumors (setting [4]), the “Growth of SC tumors” value was “significantly inhibit development of tumors growth of SC tumors” and the “mean day 15 log BLI signal±standard deviation” value is recorded as 5.55×10^8±2.2×10^8 p/s. Also, the STAT3-dependent luciferase activity result in test [1] is “significant reduction in STAT-dependent expression”. For the same compound, in test [2], the “Effectiveness against patient-derived ovarian cells” value is reported as “Effective”.

Values taken from patent US11963966B2, “Compositions and methods for treating ovarian tumors” (Dana-Farber Cancer Institute, Inc., priority 2017, dated 2024).
